Assay results reported in ChEMBL document CHEMBL1201862, “PubChem BioAssay data set” (2004).
Activity calls are given as the source filed them.

Key:
[1] = reduction of Shn3 3'UTR-driven luciferase in osteoblasts – cell-based, Clone20 osteoblasts, firefly luciferase, cherry-picked, dose response (AID 624132); format: functional;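 further: firefly luciferase luminescence from reporter carrying the Shn3 3'UTR in osteoblasts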
[2] = loss of viability in HepG2 cells – cell-based, CellTiter-Glo, cherry-picked, cytotoxicity control for Shn3 inhibitor project, dose response (AID 624134); format: functional
[3] = non-specific 3'UTR reporter inhibition in Clone20-Shn3RL – cell-based, Renilla luciferase, cherry-picked, counter-screen for Shn3 inhibitor project, dose response (AID 624133); format: functional
[4] = reduced cellular PGC1a acetyl-lysine signal – cell-based, cherry-picked samples, dose response (AID 720514); format: functional;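 further: potency may reflect raised or lowered acetylation signal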
[5] = target: T1, Aminopeptidase N (Plasmodium falciparum FcB1/Columbia, UniProt O96935); assay: malaria alanyl aminopeptidase activity blockers – biochemical, fluorogenic H-Leu-NHMec substrate, 1536-well (AID 1445); parameters: species or system Plasmodium falciparum 3D7, 3D7
T1 sequence (O96935 whole entry): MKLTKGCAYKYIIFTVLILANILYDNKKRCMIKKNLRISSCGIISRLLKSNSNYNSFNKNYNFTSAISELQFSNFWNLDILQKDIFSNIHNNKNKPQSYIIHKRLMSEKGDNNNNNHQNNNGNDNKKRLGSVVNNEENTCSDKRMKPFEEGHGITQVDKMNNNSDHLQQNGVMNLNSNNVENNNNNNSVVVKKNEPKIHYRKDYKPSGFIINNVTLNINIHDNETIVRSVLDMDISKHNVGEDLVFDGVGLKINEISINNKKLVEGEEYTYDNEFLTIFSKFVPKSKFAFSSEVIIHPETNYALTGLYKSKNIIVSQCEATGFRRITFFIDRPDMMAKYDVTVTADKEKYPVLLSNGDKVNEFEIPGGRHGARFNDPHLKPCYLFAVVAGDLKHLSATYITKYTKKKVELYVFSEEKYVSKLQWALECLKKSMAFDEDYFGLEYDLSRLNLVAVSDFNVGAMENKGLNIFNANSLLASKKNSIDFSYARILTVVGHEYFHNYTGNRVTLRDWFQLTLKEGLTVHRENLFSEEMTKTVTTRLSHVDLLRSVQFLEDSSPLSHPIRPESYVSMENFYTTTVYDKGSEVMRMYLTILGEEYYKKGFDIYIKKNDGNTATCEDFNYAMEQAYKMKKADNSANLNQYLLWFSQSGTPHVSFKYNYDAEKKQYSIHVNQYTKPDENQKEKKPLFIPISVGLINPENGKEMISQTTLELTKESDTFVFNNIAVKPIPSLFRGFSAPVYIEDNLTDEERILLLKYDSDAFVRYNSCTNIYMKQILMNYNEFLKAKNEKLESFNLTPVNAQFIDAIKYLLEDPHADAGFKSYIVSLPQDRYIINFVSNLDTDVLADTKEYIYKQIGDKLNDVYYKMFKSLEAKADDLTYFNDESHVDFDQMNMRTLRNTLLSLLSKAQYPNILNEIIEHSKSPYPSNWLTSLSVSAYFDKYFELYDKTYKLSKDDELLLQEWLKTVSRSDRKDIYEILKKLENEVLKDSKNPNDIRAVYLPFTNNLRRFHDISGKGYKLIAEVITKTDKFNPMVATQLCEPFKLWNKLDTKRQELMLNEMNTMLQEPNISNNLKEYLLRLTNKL

[6] = viability loss in Vero cells – cytotoxicity control for Vif-APOBEC3G degradation inhibitor project, dose response (AID 1117358); format: functional; conditions: Vero
[7] = M. tuberculosis H37Rv growth inhibitors, H37Rv strain (AID 1626); format: functional
[8] = test system: H9c2; assay: cells; format: functional, cell-based; conditions: Rattus norvegicus, H9c2, Myocardium;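 further: confirmatory concentration-response retest of ultra-high-throughput screening hits for modulation of myocardial damage; cell death induced by hydrogen peroxide oxidative stress; compound pretreatment for 60 min then peroxide exposure for 2 h; potency is for protecting the cells against peroxide damage rather than for killing them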
[9] = target: Paired box protein Pax-8 (Homo sapiens, UniProt Q06710); assay: PAX8 transcriptional activity inhibition in RMG-I – RMG-I cells, luciferase, cherry-pick, dose response (AID 687027); format: functional, cell-based;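 further: luciferase reporter driven by Pax8 target thyroperoxidase promoter measured by SteadyGlo luminescence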
[10] = OVCAR8 cell viability loss – plate reader, dry powder samples, PAX8 project, dose response (AID 743197); format: functional, cell-based; conditions: OVCAR-8
[11] = A2780 cell killing – plate reader, dry powder samples, cytotoxicity control, dose response (AID 743046); format: functional, cell-based
[12] = OVCAR-3 cell viability loss – plate reader, dry powder samples, PAX8 inhibitor project, dose response (AID 743044); format: functional, cell-based
[13] = CellTiter-Glo luminescence survival assay, SW480 colon tumor line, concentration-response curve, half-maximal inhibitory concentration (AID 1117338); format: functional
[14] = RKO cell viability reduction, dose response, CellTiter-Glo luminescence (AID 1117322); format: functional
[15] = cytotoxicity toward HCT116 cells – cell-based, CellTiter-Glo luminescence, IC50, dose response (AID 1117332); format: functional; conditions: HCT-116
[16] = SNU-C1 cell viability reduction, dose response, CellTiter-Glo luminescence (AID 1117323); format: functional, cell-based
[17] = cytotoxicity toward Colo320 cells – cell-based, CellTiter-Glo luminescence, IC50, dose response (AID 1117334); format: functional; conditions: COLO 320
[18] = cytotoxicity toward HT-29 cells – cell-based, CellTiter-Glo luminescence, IC50, dose response (AID 1117330); format: functional
[19] = Reduced DLD-1 viability, concentration-response, CellTiter-Glo luminescence (AID 1117352); format: functional

Chain of Paired box protein Pax-8 (Q06710 whole entry): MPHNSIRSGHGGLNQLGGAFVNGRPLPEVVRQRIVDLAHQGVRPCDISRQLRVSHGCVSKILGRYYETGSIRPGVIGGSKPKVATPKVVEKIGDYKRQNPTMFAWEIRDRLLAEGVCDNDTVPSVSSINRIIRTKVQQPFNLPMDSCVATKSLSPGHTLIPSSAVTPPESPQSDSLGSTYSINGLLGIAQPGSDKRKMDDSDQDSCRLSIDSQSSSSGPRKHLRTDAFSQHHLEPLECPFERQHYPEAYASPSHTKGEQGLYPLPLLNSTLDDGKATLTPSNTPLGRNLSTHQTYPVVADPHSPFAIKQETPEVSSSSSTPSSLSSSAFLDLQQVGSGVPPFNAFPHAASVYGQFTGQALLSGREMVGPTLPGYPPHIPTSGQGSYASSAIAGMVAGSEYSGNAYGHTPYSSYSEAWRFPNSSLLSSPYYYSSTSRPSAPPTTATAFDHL

COc1ccccc1NC(=O)Cn1c(C)cc(=O)c2cccc(OC)c21
AC50 [1]: 3.16 µM (active) | AC50 [2]: 48.1 µM (active) | AC50 [3]: 4.46 µM (active) | AC50 [4]: 35.8 µM (active)

CC(=O)Nc1ccc(S(=O)(=O)Nc2cccc(-c3csc(C)n3)c2)cc1
IC50 [5]: 58.2 µM (active)

O=C(CCNS(=O)(=O)c1ccc(Cl)cc1)NCc1cccnc1
CC50 [6]: > 40 µM (active)

C=CCOc1ccc(/C=N/c2ccc(OC)cc2)c(O)c1
IC50 [7]: > 100 µM (active) | IC50 [8]: 9.42 µM (active)

C[C@@H]1CN([C@H](C)CO)C(=O)c2cc(NS(=O)(=O)c3cccs3)ccc2O[C@@H](C)CCCCO[C@H]1CN(C)Cc1ccc(C(F)(F)F)cc1
AC50 [9]: 8.66 µM (active) | AC50 [10]: > 70 µM (inactive)

C[C@@H]1CCCCO[C@@H](CN(C)Cc2ccc(Cl)c(Cl)c2)[C@H](C)CN([C@H](C)CO)C(=O)c2cc(NC(=O)c3ccccc3)ccc2O1
AC50 [9]: 14 µM (active) | AC50 [11]: 33.8 µM (active) | AC50 [12]: 3.16 µM (active) | AC50 [10]: 27.5 µM (active)

C[C@@H]1CN([C@@H](C)CO)C(=O)Cc2cc(NC(=O)NC3CCCCC3)ccc2O[C@@H]1CN(C)Cc1ccc(-c2ccccc2)cc1
AC50 [9]: 30.6 µM (active) | AC50 [11]: 0.296 µM (active)

O=C(Nc1cccc(F)c1)N1CC(=O)N2[C@@H](CO)[C@@H](c3ccc(C#Cc4cccnc4)cc3)[C@@H]2C1
AC50 [4]: 4.54 µM (active)

O=C(O)c1ccccc1S [THIOSALICYLIC ACID]
IC50 [13]: > 20 µM (inactive) | IC50 [14]: > 20 µM (inactive) | IC50 [15]: > 20 µM (inactive) | IC50 [16]: > 20 µM (inactive) | IC50 [17]: > 20 µM (inactive) | IC50 [18]: > 20 µM (inactive) | IC50 [19]: > 20 µM (inactive)
